Results as given in patent publication US9943498B2, “Fe(III) complex compounds for the treatment and prophylaxis of iron deficiency symptoms and iron deficiency anemias” (Vifor (International) AG, priority 2010, dated 2018).

Each substance was assayed on Male NMRI (SPF) mice fed a low-iron diet (assay: Fe utilization in iron-deficient mouse model). Details: male NMRI mice on low-iron diet (approx. 5 ppm iron); 2 mg iron/kg body weight/day by stomach tube, days 1-5 and 8-12; utilization on day 15 calculated from hemoglobin and body weight increase versus control group.
Format: in vivo
Procedure: The excellent Fe utilizations that can be accomplished through the Fe complexes according to the invention were measured by means of the following mouse model.
Male NMRI (SPF) mice (approximately 3 weeks old) were fed a low-iron diet (approx. 5 ppm iron) for approximately 3 weeks. The iron complexes were then administered to them by means of a stomach tube (2 mg iron/kg body weight/day) for 2 times 5 days, with an interruption of 2 days (days 1-5 and 8-12). Utilization on day 15 was calculated from the hemoglobin increase and the body weight increase in accordance with the formula
[formula] • 0.07=Factor for 70 ml blood per kg body weight (BW) • 0.0034=Factor for 0.0034 g Fe/g Hb • Hb1=Hemoglobin level (g/I) on day 1 • Hb2(3)=Hemoglobin level (g/I) on day 8 (or 15) • BW4=body weight (g) on day 1 • BW9(14)=body weight (g) on day 8 (or 15) • Hb1 Control=average hemoglobin level (g/I) on day 1 in the control group, • Hb2(3) Control=average hemoglobin level (g/I) on day 8 (or 15) in the control group, • BW4 Control=average body weight (g) on day 1 in the control group, • BW9(14) Control=average body weight (g) on day 8 (or 15) in the control group, • Fe Dos.=entire administered iron (mg Fe) over 5 or 10 days, • Fe ut.=(Hb2(3)*BW9(14)-Hb1*BW4)*0.07*0.0034 (mg Fe) Δ Utilization=Fe tot. utilized (examined group)—Fe ut. Control group, utilized from food, (mg Fe)

Substance | Utilization n 15 d (abs. %)
Tris(3-oxo-2-(piperidin-1-ylcarbonyl)butanenitrile)-iron(III) Complex [Example 5] | 61 abs. %
Tris(3-oxoheptaneamide)-iron(III) Complex [Example 10] | 45 abs. %
Tris(3-oxopentaneamide)-iron(III) Complex [Example 18] | 81 abs. %
Tris(N,N-dibutyl-3-oxobutaneamide)-iron(III) Complex [Example 8] | 69 abs. %
Tris(N,N-dimethyl-3-oxoheptaneamide)-iron(III) Complex [Example 17] | 48 abs. %
Tris(N,N-dimethyl-3-oxopentaneamide)-iron(III) Complex [Example 19] | 73 abs. %
Tris(N-butyl-3-oxobutaneamide)-iron(III) Complex [Example 7] | 41 abs. %
Tris(N-methyl-3-oxoheptaneamide)-iron(III) Complex [Example 11] | 75 abs. %
Tris-(1-(2,6-dimethylmorpholin-4-yl]butane-1,3-dione)-iron(III)-complex [Example 59] | 80 abs. %
Tris-(1-(3-hydroxypiperidin-1-yl)butane-1,3-dione)-iron(III)-complex [Example 47] | 61 abs. %
Tris-(1-(4-Hydroxypiperidin-1-yl)-4-methylpentane-1,3-dione)-iron(III)-complex [Example 64] | 79 abs. %
Tris-(1-(4-hydroxypiperidin-1-yl)-butane-1,3-dione)-iron(II) complex [Example 14] | 68 abs. %
Tris-(1-(4-hydroxypiperidin-1-yl)pentane-1,3-dione)-iron(III)-complex [Example 61] | 73 abs. %
Tris-(1-(morpholin-4-yl)butane-1,3-dione)-iron(III)-complex [Example 33] | 69 abs. %
Tris-(1-(morpholin-4-yl)pentane-1,3-dione)-iron(III)-complex [Example 62] | 68 abs. %
Tris-(1-(piperidin-1-yl)-butane-1,3-dione)-iron(III) Complex [Example 9] | 54 abs. %
Tris-(1-[4-(2-hydroxyethyl)piperazin-1-yl]butane-1,3-dione)-iron(III)-complex [Example 52] | 84 abs. %
Tris-(1-[4-(hydroxymethyl)piperidin-1-yl]butane-1,3-dione)-iron(III)-complex [Example 48] | 53 abs. %
Tris-(1-[(3S)-3-hydroxypyrrolidin-1-yl]butane-1,3-dione)-iron(III)-complex [Example 51] | 78 abs. %
Tris-(2-Fluoro-3-oxo-N-propylbutanamide)-iron(III)-complex [Example 23] | 88 abs. %
Tris-(2-Fluoro-N,N-dimethyl-3-oxobutanamide)-iron(II)-complex [Example 22] | 78 abs. %
Tris-(3-acetyl-1-methylpiperidin-2-one)-iron(III)-complex [Example 31] | 71 abs. %
Tris-(3-acetyl-1-methylpyrrolidin-2-one)-iron(III)-complex [Example 28] | 73 abs. %
Tris-(3-oxo-N,N-dipropylbutaneamide)-iron(III) Complex [Example 15] | 68 abs. %
Tris-(3-oxo-N-(propan-2-yl)butanamide)-iron(III)-complex [Example 36] | 79 abs. %
Tris-(3-oxobutaneamide)-iron(III) Complex [Example 1] | 61 abs. %

Substance | Utilization n 15 d (abs. %)
Tris-(4-Methoxy-1-(morpholin-4-yl)butane-1,3-dione)-iron(III)-complex [Example 27] | 88 abs. %
Tris-(4-Methoxy-N,N-dimethyl-3-oxobutanamide)-iron(III)-complex [Example 24] | 70 abs. %
Tris-(4-Methyl-1-(morpholin-4-yl)-pentane-1,3-dione)-iron(III)-complex [Example 26] | 64 abs. %
Tris-(Ethyl (1-methyl-2-oxopyrrolidin-3-yl)(oxo)acetate)-iron(III)-complex [Example 29] | 79 abs. %
Tris-(N,N,4-Trimethyl-3-oxopentanamide)-iron(III)-complex [Example 25] | 60 abs. %
Tris-(N,N-bis-(2-hydroxyethyl)-3-oxobutaneamide)-iron(III) Complex [Example 12] | 35 abs. %
Tris-(N,N-diethyl-3-oxobutaneamide)-iron(III) Complex [Example 2] | 41 abs. %
Tris-(N,N-dimethyl-3-oxobutaneamide)-iron(III) Complex [Example 3] | 95 abs. %
Tris-(N-(1-hydroxy-2-methylpropan-2-yl)-3-oxobutanamide)-iron(III)-complex [Example 41] | 68 abs. %
Tris-(N-(2,3-dihydroxypropyl)-3-oxobutanamide)-iron(III)-complex [Example 46] | 78 abs. %
Tris-(N-(2-Hydroxyethyl)-N,4-dimethyl-3-oxopentanamide)-iron(11)-complex [Example 65] | 73 abs. %
Tris-(N-(2-hydroxyethyl)-N-methyl-3-oxobutanamide)-iron(III)-complex [Example 42] | 30 abs. %
Tris-(N-(2-hydroxypropyl)-3-oxobutanamide)-iron(III)-complex [Example 43] | 75 abs. %
Tris-(N-(2-methoxyethyl)-3-oxobutanamide)-iron(III)-complex [Example 34] | 32 abs. %
Tris-(N-(3-hydroxypropyl)-3-oxobutanamide)-iron(III)-complex [Example 38] | 77 abs. %
Tris-(N-(3-hydroxypropyl)-N-methyl-3-oxobutanamide)-iron(III)-complex [Example 54] | 76 abs. %
Tris-(N-(4-hydroxybutyl)-3-oxobutanamide)-iron(III)-complex [Example 39] | 66 abs. %
Tris-(N-(morpholin-4-yl)-3-oxobutanamide)-iron(III)-complex [Example 60] | 80 abs. %
Tris-(N-(trans-4-hydroxycyclohexyl)-3-oxobutanamide)-iron(III)-complex [Example 55] | 84 abs. %
Tris-(N-Butyl-3-oxoheptanamide)-iron(III)-complex [Example 63] | 71 abs. %
Tris-(N-Cyclopropyl-3-oxobutanamide)-iron(III)-complex [Example 35] | 44 abs. %
Tris-(N-butyl-N-methyl-3-oxobutaneamide)-iron(ill) Complex [Example 13] | 71 abs. %
Tris-(N-hexyl-3-oxobutaneamide)-iron(III) Complex [Example 16] | 60 abs. %
Tris-(N-methyl-3-oxobutaneamide)-iron(III) Complex [Example 4] | 90 abs. %
Tris-(ethyl 4-(dimethylamino)-2,4-dioxobutanoate)-iron(III)-complex [Example 32] | 81 abs. %
Tris-(ethyl N-(3-oxobutanoyl)glycinate)-iron(l) complex (Tris((3-Oxo-butyrylamino)ethyl acetate)iron) [Example 20] | 77 abs. %

Same assay, conditions: mouse, in vivo

Substance | Utilization n 15 d (abs. %)
Tris-(2-chloro-N-methyl-3-oxobutaneamide)-iron(III) Complex [Example 6] | 57 abs. %
Tris-(N-(1-hydroxypropan-2-yl)-3-oxobutanamide)-iron(III)-complex [Example 44] | 73 abs. %
Tris-(N-(2-hydroxyethyl)-3-oxobutanamide)-iron(III)-complex [Example 37] | 34 abs. %
Tris-(N-(5-hydroxypentyl)-3-oxobutanamide)-iron(III)-complex [Example 40] | 87 abs. %
